Test results reported in PMC7156456, “Modulation of virus-induced NF-κB signaling by NEMO coiled coil mimics” (Nature Communications, 2020).
Peptide text beside a SMILES is read from it. * marks the point of attachment. Cbz = O=C(OCc1ccccc1)*

Legend:
[1] = system: vFLIP and NEMO levels in Namalwa Mut vFLIP cell line; experiment: vFLIP protein stability, Namalwa Mut vFLIP cell line; type: cell-based; conditions: 5 μM, within 2 h of treatment
Method: vFLIP protein stability and turnover was measured by treating Namalwa WT vFLIP and NF-kB dead vFLIP mutant cell lines in the presence or absence of 5 μM of the proteasomal inhibitor MG-132 (Calbiochem cat 474790) and 100 μg/mL of the protein synthesis inhibitor cycloheximide (Sigma-Aldrich, cat. 66-81-9). Cells were harvested at the indicated time intervals and lysed in RIPA buffer and supernatants were analyzed by immunoblotting.

vFLIP/NEMO interaction = target: T1, vFLIP/NEMO interaction (Human herpesvirus 8 type P, UniProt F5HEZ4); experiment: biochemical; type: binding, Kaposi's sarcoma herpesvirus (KSHV)
T1 construct: vFLIP (1-178) and NEMO (150-272) were cloned into pET28a vector; made in house; host or cells: E. coli BL21(DE3)
T1 sequence (F5HEZ4 1-178): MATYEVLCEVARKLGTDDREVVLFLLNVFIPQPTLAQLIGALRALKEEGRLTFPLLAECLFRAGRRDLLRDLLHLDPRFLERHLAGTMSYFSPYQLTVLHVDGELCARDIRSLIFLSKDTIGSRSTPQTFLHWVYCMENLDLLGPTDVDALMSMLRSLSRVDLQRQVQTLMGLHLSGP
Method: For the competition assay, two-fold serial dilution of the different NEMO mimetics were prepared in DMSO then diluted in TR-FRET buffer to 5× and added in triplicates to a 384 low volume well plate. His-MBP vFLIP diluted to 5× in TR-FRET buffer (250 nM) was then added to each well and incubated for 15 min at RT. His-Biotinylated NEMO diluted to 5× in TR-FRET buffer (250 nM) was the added to the mixture followed by addition of 5× or 200 nM) streptavidin-XL665 and (5× or 1 nM) of the antibody-tagged fluorophore anti-MBPK labeled with Europium cryptate). The final concentration of the NEMO mimetics ranged from 0.195 μM to 100 μM. Total assay volume was 20 μL. The plate was incubated for 1 h at RT then read using BioTek Synergy NEO. Titration of non-biotinylated NEMO (0.0195-10 μM) was used as a positive control in every run. The effect of the peptides on vFLIP/NEMO interaction was normalized to the control and expressed as percent inhibition (% of control):
%ofcontrol=FRETCHD−FRETbackground/FRETcontrol−FRETbackground where FRET control is the TR-FRET signal in DMSO treated wells (highest signal) and FRET background is TR-FRET signal in wells containing the highest concentration of non-biotinylated NEMO (10 μM) which provides the lowest signal. Normalized TR-FRET data was plotted using Graphpad Prism.
Supplementary Figure 1. Schematic representation of the Time-resolved Fluorescence Energy Transfer (TR-FRET) binding assay. (a) Complexes of recombinant his-MBP vFLIP, biotinylated His-NEMO, Europium cryptate conjugated anti-MBP antibody and strepavidin XL665 were used to generate proximity for a FRET signal between the donor fluorophore Europium cryptate and the acceptor fluorophore strepavidin XL665. The TR-FRET signal was calculated as a ratiometric measurement of the acceptor fluoroscence emission at 665nm over the donor emission at 620nm multiplied by 10000. […] (d) Size exclusion chromatography of NEMO-vFLIP complex indicating a shift to the left in absorbance at 280nm when NEMO binds specifically to vFLIP. […]

full length NEMO = full length NEMO (Homo sapiens, UniProt Q9Y6K9); experiment: Fluorescence polarization direct binding assay, NEMO control
Sequence of full length NEMO (Q9Y6K9 193-252 limits assumed): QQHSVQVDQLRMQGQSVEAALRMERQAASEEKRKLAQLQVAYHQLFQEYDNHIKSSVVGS
Method: The relative affinity of FITC-CHD3^NEMO to MBP-vFLIP were determined using fluorescence polarization-based direct binding assay. The polarization experiments were performed using a DTX 880 Multimode Detector (Beckman) at 25 °C with excitation and emission wavelengths of 485 and 525 nm, respectively. Each polarization experiment was performed in a 96-well round bottom plate (Greiner) in assay buffer: 20 mM Tris-HCl, 150 mM NaCl, 0.5 mM TCEP, 10% glycerol, 0.1% pluronic acid, pH 8. The binding affinity (KD) values reported for each peptide are from experiments performed in triplicate. Raw values were fit to a sigmoidal dose-response nonlinear regression model in Graphad Prism 6.0.
All binding experiments with FITC-labeled CHD peptide to MBP-vFLIP were performed under the same conditions. Briefly, serial dilutions of MBP-vFLIP were made from 75 μM into 100 nM of FITC-labeled CHD peptide in assay buffer. KD was determined using the following equation[56]: KD=RT×1−FSB+LST×FSB2/FSB−LST where, […]

BC-1 PEL cells = experiment: Live cell confocal microscopy, cellular uptake; type: cell-based
Method: Cells were then added to 35 mm glass bottom MatTek poly-lysine coated plates (p356c-0-10C) and immunofluorescence images were captured using LSM880 confocal miscroscope with Airyscan resolution detector, spectral detector and incubation. Images were processed using Fiji software (Supplementary Fig. 11).

BC-1 = system: BC-1; parameters: method as in earlier work; conditions: BC-1, PEL, KSHV+/EBV+; ref 2,3,4 (supplement); read-out: PU-H71 LC50; cited from earlier work
BC-2 = system: BC-2; parameters: method as in earlier work; conditions: BC-2, PEL, KSHV+/EBV+; ref 2,3,4 (supplement); read-out: PU-H71 LC50; cited from earlier work
BC-3 = system: BC-3; parameters: method as in earlier work; conditions: BC-3, PEL, KSHV+; ref 2,3,4 (supplement); read-out: PU-H71 LC50; cited from earlier work
BCBL-1 = system: BCBL-1; parameters: method as in earlier work; conditions: BCBL-1, PEL, KSHV+; ref 2,3,4 (supplement); read-out: PU-H71 LC50; cited from earlier work
Namalwa = system: Namalwa; parameters: method as in earlier work; conditions: Burkitt, EBV+, ref 2,3,4 (supplement), read-out: PU-H71 LC50; cited from earlier work

CC(C)C[C@@H](C=O)NC(=O)[C@H](CC(C)C)NC(=O)[C@H](CC(C)C)NC(=O)OCc1ccccc1 [MG132] (Cbz-Leu-Leu-Leu-aldehyde)
vFLIP and NEMO protein levels [1]: stabilized vFLIP protein and increased NEMO levels

CC[C@H](C)[C@H](NC(=O)[C@H](C)NC(=O)[C@H](CCC(=O)O)NC(C)=O)C(=O)N[C@@H](CCCNC(=N)N)C(=O)N[C@@H](CCC(N)=O)C(=O)N[C@@H](CC(C)C)C(=O)N[C@@H](Cc1c[nH]c2ccccc12)C(=O)N[C@@H](CCC(=O)O)C(=O)N[C@@H](CCC(=O)NC1CCCCC1)C(=O)N[C@H](C(=O)N[C@@H](CCCNC(=N)N)C(=O)N[C@@H](CCCNC(=N)N)C(=O)N[C@@H](CC(C)C)C(=O)N[C@@H](CCCCn1cc(COCc2cn(CCCC[C@H](NC(=O)[C@H](CCCNC(=N)N)NC(=O)[C@H](Cc3ccccc3)NC(=O)[C@H](CC(C)C)NC(=O)[C@H](CCCNC(=N)N)NC(=O)[C@H](C)NC(=O)[C@@H](NC(=O)[C@H](CCC(=O)O)NC(C)=O)[C@@H](C)CC)C(=O)N[C@H](C(=O)N[C@@H](CC(=O)O)C(=O)N[C@@H](CCC(=O)O)C(=O)N[C@@H](CC(C)C)C(=O)N[C@H](C(=O)N[C@@H](CCCNC(=N)N)C(N)=O)[C@@H](C)CC)[C@@H](C)CC)nn2)nn1)C(N)=O)[C@@H](C)CC [CHD4^NEMO]
Ki (vFLIP/NEMO interaction): > 50000 nM

CC[C@H](C)[C@H](NC(=O)[C@H](CC(C)C)NC(=O)[C@H](CCC(=O)O)NC(=O)[C@H](CC(=O)O)NC(=O)[C@@H](NC(=O)[C@H](CCCCn1cc(COCc2cn(CCCC[C@H](NC(=O)[C@H](CC(C)C)NC(=O)[C@H](CCCNC(=N)N)NC(=O)[C@H](CCCNC(=N)N)NC(=O)[C@@H](NC(=O)[C@H](CCC(=O)NC3CCCCC3)NC(=O)[C@H](CCC(=O)O)NC(=O)[C@H](Cc3c[nH]c4ccccc34)NC(=O)[C@H](CC(C)C)NC(=O)[C@H](CCC(N)=O)NC(=O)[C@H](CCCNC(=N)N)NC(=O)[C@@H](NC(=O)[C@H](Cc3c[nH]c4ccccc34)NC(=O)[C@H](CCC(=O)O)NC(=O)CCNC(=S)Nc3ccc4c(c3)C(=O)OC43c4ccc(O)cc4Oc4cc(O)ccc43)[C@@H](C)CC)[C@@H](C)CC)C(N)=O)nn2)nn1)NC(=O)[C@H](CCCNC(=N)N)NC(=O)[C@H](Cc1ccccc1)NC(=O)[C@H](CC(C)C)NC(=O)[C@H](CCCNC(=N)N)NC(=O)[C@H](Cc1c[nH]cn1)NC(=O)[C@@H](NC(=O)[C@H](CCC(=O)O)NC(C)=O)[C@@H](C)CC)[C@@H](C)CC)C(=O)N[C@@H](CCCNC(=N)N)C(N)=O [FITC-CHD3^NEMO]
binding to wild-type NEMO coiled coil (full length NEMO): does not bind | cellular uptake (BC-1 PEL cells; 500 nM FITC-labeled peptide, 37 °C, live BC-1 cells): enters BC-1 cells | cellular uptake at 4 °C / with sodium azide (BC-1 PEL cells; 4 °C or 10 mM sodium azide): reduction in cellular uptake

CC[C@H](C)[C@H](NC(=O)[C@H](C)NC(=O)[C@H](CCC(=O)O)NC(C)=O)C(=O)N[C@@H](CCCNC(=N)N)C(=O)N[C@@H](CCC(N)=O)C(=O)N[C@@H](CC(C)C)C(=O)N[C@@H](Cc1ccc(O)cc1)C(=O)N[C@@H](CCC(=O)O)C(=O)N[C@@H](CCC(=O)O)C(=O)N[C@H](C(=O)N[C@@H](CCCNC(=N)N)C(=O)N[C@@H](CC(N)=O)C(=O)N[C@@H](CC(C)C)C(=O)N[C@@H](CCCCn1cc(COCc2cn(CCCC[C@H](NC(=O)[C@H](CCCNC(=N)N)NC(=O)[C@H](Cc3ccccc3)NC(=O)[C@H](CC(C)C)NC(=O)[C@H](CCCNC(=N)N)NC(=O)[C@H](Cc3c[nH]cn3)NC(=O)[C@@H](NC(=O)[C@H](CCC(=O)O)NC(C)=O)[C@@H](C)CC)C(=O)N[C@H](C(=O)N[C@@H](CC(=O)O)C(=O)N[C@@H](CCC(=O)O)C(=O)N[C@@H](CC(C)C)C(=O)N[C@H](C(=O)N[C@@H](CCCNC(=N)N)C(N)=O)[C@@H](C)CC)[C@@H](C)CC)nn2)nn1)C(N)=O)[C@@H](C)CC [CHD1^NEMO]
Ki (vFLIP/NEMO interaction): > 50000 nM

CC(C)NCCCn1c(Sc2cc3c(cc2I)OCO3)nc2c(N)ncnc21 [PU-H71]
CC50 (BC-1): 36.9 nM | CC50 (BC-2): 27.1 nM | CC50 (BC-3): 63.4 nM | CC50 (BCBL-1): 217 nM | CC50 (Namalwa): 337 nM
